From ChEMBL document CHEMBL1124138, “Synthesis and analgesic activity of pemedolac (cis-1-ethyl-1,3,4,9-tetrahydro-4-(phenylmethyl)pyrano[3,4-b]ind ole-1- acetic acid)” (1988) come the findings set out here.

SMILES strings stand for the structures. Bounds are passed on as bounds.

Type in all cases: functional
The subject of assay [1] is Mus musculus. The assay is described as follows: Percentage inhibition of writhing in mouse at 25 mg/kg (PBQ writhing test). For orientation: An intraperitoneal irritant provokes the stretching counted in writhing tests.
The species named for assay [2] is Rattus norvegicus. The assay is described as follows: Dose causing an analgesic effect in 50% of rats (Randall-Selitto assay).
Assay [3] is filed under the species Mus musculus. The assay is described as follows: Dose causing 50% inhibition of writhing in mouse (PBQ writhing test).
The subject of assay [4] is Rattus norvegicus. The assay is described as follows: Percentage analgesic effect of rats at 10 mg/kg (Randall-Selitto assay).
In assay [5] the test system is Mus musculus. The assay is described as follows: Percentage inhibition of writhing in mouse at 30 mg/kg (PBQ writhing test).
A short description of assay [6]: Ratio of carrageenan paw edema ED50/Randall-Sellitto ED50. (Carrageenan injected into the paw causes an acute inflammation.)
Assay [7] in a line: Ratio of acute ulcerogenesis UD50/Randall-Selitto ED50.
Assay [8] is filed under the species Rattus norvegicus. The assay is described as follows: Dose at which 50% of the rats had a positive gastrointestinal irritation / ulceration on a quantal all-or-none basis.
For assay [9], the system named is Rattus norvegicus. The assay is described as follows: Dose causing 50% inhibition of edema by carrageenan paw edema assay.
Assay [10] has as its system Rattus norvegicus. The assay is described as follows: Dose causing 50% inhibition of edema by carrageenan paw edema assay.
Assay [11] is filed under the species Rattus norvegicus. The assay is described as follows: Dose at which 50% of the rats had a positive gastrointestinal irritation / ulceration on a quantal all-or-none basis.
Where [12] appears, read: Rattus norvegicus, read-out: ED50.

`CC[C@@]1(CC(=O)O)OC[C@@H](Cc2ccccc2)c2c1[nH]c1ccccc21`: the inhibition in vivo at 25 mg/kg in the assay on Mus musculus [1] is 19%.

`CCC1(CC(=O)O)OCC(Cc2ccccc2)c2c1[nH]c1ccccc21` (single isomer, unassigned; (+)) [PEMEDOLAC]: the ED50 in the assay listed under Rattus norvegicus [2] stood at 0.04 mg/kg; in the assay filed under Mus musculus [3], 1.8 mg/kg.

In the assay with Rattus norvegicus [4], `CCC1(CC(=O)O)OCC(Cc2ccccc2)c2c1[nH]c1ccccc21` (single isomer, unassigned; (-)) [PEMEDOLAC] returned an Effect of 40%. In addition, in the assay with Mus musculus [5], the inhibition in vivo at 30 mg/kg was 15%.

In the case of `CCC1(CC(=O)O)OCC(Cc2ccccc2)c2c1[nH]c1ccccc21` (stereo in doubt), in [6], the Ratio came to 33000. The Safety index in assay [7] is > 35000.

With `CCC1(CC(=O)O)OCC(Cc2ccccc2)c2c1[nH]c1ccccc21` (stereo in doubt) [PEMEDOLAC], the ED50 in the assay listed under Rattus norvegicus [2] was 0.003 mg/kg; in the assay with Rattus norvegicus [9], ~100 mg/kg; in the assay filed under Mus musculus [3] (Mus musculus, read-out: ED50) it was 2 mg/kg. The same compound displayed a UD50 in the assay listed under Rattus norvegicus [8] of 107 mg/kg.

As for `CCc1cccc2c3c([nH]c12)C(CC)(CC(=O)O)OCC3` (stereo not drawn) [ETODOLAC], the ED50 was 4.5 mg/kg in the assay filed under Rattus norvegicus [2] (setting [12]) and 23 mg/kg in the assay on Rattus norvegicus [9]. Further, in the assay filed under Rattus norvegicus [8], the UD50 was found to be 58 mg/kg. Further, the Ratio in [6] turned out to be 5.1. The Safety index in assay [7] was 13.

With `CC(C)Cc1ccc(C(C)C(=O)O)cc1` (stereo not drawn) [IBUPROFEN], the ED50 in the assay listed under Rattus norvegicus [2] (setting [12]) is 64.5 mg/kg; in the assay listed under Mus musculus [3] (Mus musculus, read-out: ED50), 32.4 mg/kg; with Rattus norvegicus [10], 21 mg/kg. Besides, the Ratio in [6] turned out to be 0.3. Further, the Safety index in assay [7] worked out at 2.3. The UD50 in the assay listed under Rattus norvegicus [11] was 150 mg/kg.

In the case of `CN1C(C(=O)Nc2ccccn2)=C(O)c2ccccc2S1(=O)=O` [PIROXICAM], the ED50 was 0.35 mg/kg in the assay listed under Rattus norvegicus [2] (setting [12]); 3.4 mg/kg in the assay filed under Mus musculus [3] (Mus musculus, read-out: ED50); 1.3 mg/kg in the assay on Rattus norvegicus [10]. In addition, in [6], the Ratio worked out at 3.7. For the same compound, in [7], the Safety index was found to be 17. Moreover, the UD50 in the assay listed under Rattus norvegicus [11] worked out at 6 mg/kg.

What is called inhibition in vivo is the drop in the measured response relative to a control, in per cent. A high value points to strong suppression. For orientation: ED50 means the midpoint of the dose-response relation.
